According to ChEMBL document CHEMBL5335794, “Discovery of novel multifunctional ligands targeting GABA transporters, butyrylcholinesterase, β-secretase, and amyloid β aggregation as potential treatment of Alzheimer's disease” (Eur J Med Chem, 2023):

Key:
[1] = molecular target: Beta-secretase 1 (Homo sapiens, UniProt P56817); settings: dose 50.0 µM, time 60.0 min
[2] = molecular target: Acetylcholinesterase (Electrophorus electricus) (UniProt O42275); experiment: Inhibition of electric eel AChE using acetylthiocholine iodide as substrate at 10 uM preincubated for 5 mins followed by substrate addition and measured after 5 mins by DTNB reagent based Ellman's method relative to control; settings: time 10.0 min
Sequence of Acetylcholinesterase (Electrophorus electricus) (O42275 24-633 limits assumed): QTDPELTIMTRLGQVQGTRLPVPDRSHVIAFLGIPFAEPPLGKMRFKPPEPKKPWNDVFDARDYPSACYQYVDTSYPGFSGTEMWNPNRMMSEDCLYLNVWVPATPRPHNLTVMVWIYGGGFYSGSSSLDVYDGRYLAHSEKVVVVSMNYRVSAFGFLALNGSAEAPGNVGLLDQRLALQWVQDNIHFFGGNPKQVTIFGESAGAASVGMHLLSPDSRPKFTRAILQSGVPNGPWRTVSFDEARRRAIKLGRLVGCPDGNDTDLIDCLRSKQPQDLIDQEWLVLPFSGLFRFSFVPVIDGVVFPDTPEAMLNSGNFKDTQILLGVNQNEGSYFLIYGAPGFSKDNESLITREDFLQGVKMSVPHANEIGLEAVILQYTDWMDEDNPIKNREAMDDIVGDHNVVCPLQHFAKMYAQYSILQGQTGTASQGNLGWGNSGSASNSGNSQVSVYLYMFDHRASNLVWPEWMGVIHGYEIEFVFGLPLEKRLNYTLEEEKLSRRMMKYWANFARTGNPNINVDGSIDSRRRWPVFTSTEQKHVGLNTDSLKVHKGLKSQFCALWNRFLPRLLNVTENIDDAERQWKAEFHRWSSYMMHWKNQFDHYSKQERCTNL

[3] = molecular target: Cholinesterase (Equus caballus, UniProt P81908)
Sequence of Cholinesterase (P81908 whole entry): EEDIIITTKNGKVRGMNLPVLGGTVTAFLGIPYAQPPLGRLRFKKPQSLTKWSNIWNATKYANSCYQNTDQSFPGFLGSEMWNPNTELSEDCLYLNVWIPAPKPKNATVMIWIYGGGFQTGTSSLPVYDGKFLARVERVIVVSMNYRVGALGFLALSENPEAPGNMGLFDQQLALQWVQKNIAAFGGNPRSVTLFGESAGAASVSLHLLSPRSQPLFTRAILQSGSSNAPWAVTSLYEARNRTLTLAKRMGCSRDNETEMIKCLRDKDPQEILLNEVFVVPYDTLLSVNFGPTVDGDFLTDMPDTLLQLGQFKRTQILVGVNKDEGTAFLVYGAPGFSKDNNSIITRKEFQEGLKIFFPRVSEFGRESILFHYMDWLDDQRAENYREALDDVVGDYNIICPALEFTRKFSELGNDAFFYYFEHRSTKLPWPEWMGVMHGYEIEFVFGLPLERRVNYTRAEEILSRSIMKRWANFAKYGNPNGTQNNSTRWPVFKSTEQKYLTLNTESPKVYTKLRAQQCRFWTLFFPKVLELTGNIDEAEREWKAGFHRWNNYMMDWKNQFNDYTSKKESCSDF
Description: Inhibition of equine serum BuChE using butyrylthiocholine iodide as substrate preincubated for 5 mins followed by substrate addition and measured after 5 mins by DTNB reagent based Ellman's method

[4] = molecular target: T1, GABA transporter 4 (Mus musculus, UniProt P31650); experiment: Inhibition of mouse GAT4 transfected in HEK293 cells assessed as reduction in [3H]-GABA uptake preincubated for 25 mins followed by [3H]-GABA addition and measured after 4 mins by liquid scintillation counting analysis; format: cell-based; settings: read-out: pIC50 (converted)
T1 sequence (P31650 whole entry): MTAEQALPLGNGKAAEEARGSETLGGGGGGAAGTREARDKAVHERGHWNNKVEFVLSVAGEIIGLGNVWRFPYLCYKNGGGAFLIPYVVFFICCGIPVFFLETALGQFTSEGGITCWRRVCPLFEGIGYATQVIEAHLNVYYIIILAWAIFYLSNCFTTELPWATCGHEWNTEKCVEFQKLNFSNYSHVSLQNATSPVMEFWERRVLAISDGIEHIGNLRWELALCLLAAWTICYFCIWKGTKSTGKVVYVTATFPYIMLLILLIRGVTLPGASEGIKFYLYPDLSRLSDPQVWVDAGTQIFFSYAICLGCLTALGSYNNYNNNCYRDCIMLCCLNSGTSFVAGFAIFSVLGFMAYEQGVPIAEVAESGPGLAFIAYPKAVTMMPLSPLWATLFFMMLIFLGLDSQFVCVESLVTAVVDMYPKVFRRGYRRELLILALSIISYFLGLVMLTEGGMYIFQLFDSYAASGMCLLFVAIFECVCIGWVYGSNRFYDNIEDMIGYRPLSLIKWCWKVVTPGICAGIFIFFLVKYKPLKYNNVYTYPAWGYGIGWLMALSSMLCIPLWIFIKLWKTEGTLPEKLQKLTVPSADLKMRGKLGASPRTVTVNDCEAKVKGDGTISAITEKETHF

[5] = Inhibition of mouse GAT3 transfected in HEK293 cells assessed as reduction in [3H]-GABA uptake preincubated for 25 mins followed by [3H]-GABA addition and measured after 4 mins by liquid scintillation counting analysis; format: cell-based; settings: for IC50: HEK293, read-out: pIC50 (converted); for pIC50: hek293
[6] = molecular target: T2, GABA transporter 2 (Mus musculus, UniProt P31651); experiment: Inhibition of mouse GAT2 transfected in HEK293 cells assessed as reduction in [3H]-GABA uptake preincubated for 25 mins followed by [3H]-GABA addition and measured after 10 mins by liquid scintillation counting analysis; format: cell-based; settings: read-out: pIC50 (converted)
T2 sequence (P31651 whole entry): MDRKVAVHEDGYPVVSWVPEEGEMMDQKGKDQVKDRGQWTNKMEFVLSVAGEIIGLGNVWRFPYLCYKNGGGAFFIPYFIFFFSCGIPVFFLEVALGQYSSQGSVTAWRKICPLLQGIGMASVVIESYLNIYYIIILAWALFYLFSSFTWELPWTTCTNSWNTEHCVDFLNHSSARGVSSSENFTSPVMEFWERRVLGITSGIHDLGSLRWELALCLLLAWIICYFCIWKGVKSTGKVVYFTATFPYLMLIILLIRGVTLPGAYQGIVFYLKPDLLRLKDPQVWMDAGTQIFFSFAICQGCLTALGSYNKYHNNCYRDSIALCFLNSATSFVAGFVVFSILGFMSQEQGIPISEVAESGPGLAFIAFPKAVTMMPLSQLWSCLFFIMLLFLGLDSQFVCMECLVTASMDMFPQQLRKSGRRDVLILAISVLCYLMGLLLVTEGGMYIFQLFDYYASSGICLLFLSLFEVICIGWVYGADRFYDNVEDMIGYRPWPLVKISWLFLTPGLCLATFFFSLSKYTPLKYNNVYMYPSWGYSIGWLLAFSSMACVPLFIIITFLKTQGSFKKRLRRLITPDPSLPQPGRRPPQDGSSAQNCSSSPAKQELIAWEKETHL

[7] = molecular target: Sodium- and chloride-dependent GABA transporter 1 (Mus musculus) (UniProt P31648); experiment: Inhibition of NO 711 marker binding to mouse GAT1 assessed as residual activity at 100 uM by LC-ESI-MS/MS based competitive MS binding assay relative to control
[8] = molecular target: Sodium- and chloride-dependent GABA transporter 1 (Mus musculus, UniProt P31648); experiment: Inhibition of mouse GAT1 transfected in HEK293 cells assessed as reduction in [3H]-GABA uptake preincubated for 25 mins followed by [3H]-GABA addition and measured after 4 mins by liquid scintillation counting analysis; format: cell-based; settings: for IC50: read-out: pIC50 (converted)
[9] = molecular target: Cholinesterase (Equus caballus) (UniProt P81908); experiment: Inhibition of equine serum BuChE using butyrylthiocholine iodide as substrate at 10 uM preincubated for 5 mins followed by substrate addition and measured after 5 mins by DTNB reagent based Ellman's method relative to control; settings: time 10.0 min
Sequence of Cholinesterase (Equus caballus) (P81908 whole entry): as the sequence (P81908 whole entry) above

Sequence of Beta-secretase 1 (P56817 whole entry): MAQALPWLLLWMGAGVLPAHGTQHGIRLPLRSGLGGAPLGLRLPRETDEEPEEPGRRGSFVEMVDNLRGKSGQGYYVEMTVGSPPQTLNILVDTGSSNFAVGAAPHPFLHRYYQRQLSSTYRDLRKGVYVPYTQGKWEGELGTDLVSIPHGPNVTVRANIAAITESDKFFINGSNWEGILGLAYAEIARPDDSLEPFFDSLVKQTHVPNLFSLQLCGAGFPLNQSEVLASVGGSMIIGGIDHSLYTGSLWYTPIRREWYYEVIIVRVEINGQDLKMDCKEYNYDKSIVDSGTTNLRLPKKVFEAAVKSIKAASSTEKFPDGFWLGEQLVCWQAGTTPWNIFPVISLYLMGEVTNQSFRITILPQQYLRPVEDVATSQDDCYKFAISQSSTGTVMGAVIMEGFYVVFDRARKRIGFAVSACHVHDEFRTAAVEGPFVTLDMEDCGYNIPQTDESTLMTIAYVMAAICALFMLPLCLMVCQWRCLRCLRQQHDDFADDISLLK

| Compound | inhibition [1] [%] | inhibition [2] [%] | inhibition [9] [%] | also measured |
| --- | --- | --- | --- | --- |
| Cc1ccc(CNC(=O)C(CO)N(C)CCC=C2c3ccccc3C=Cc3ccccc32)cc1 (stereo unspecified) | 54 | 30 | – | IC50 [3]: 6.22 µM |
| CC(O)CC(C(=O)NCc1ccccc1)N(C)CC/C=C/c1ccccc1-c1ccccc1 (racemic; form 2) | 4 | < 10 | – | – |
| Cc1ccc(CNC(=O)C(CCO)N(C)CCOCCN2c3ccccc3Sc3ccccc32)cc1 (stereo unspecified) | 30 | < 10 | – | IC50 [4]: 19.1 µM; IC50 [5]: 8.51 µM; IC50 [6]: 12.9 µM; IC50 [3]: 2.48 µM; Activity [7]: 85%; IC50 [8]: 20.4 µM |
| CN(CCC=C1c2ccccc2CCc2ccccc21)C(CO)C(=O)NCc1ccccc1 (stereo unspecified) | 33 | < 10 | 38 | – |
| CN(CCC=C1c2ccccc2C=Cc2ccccc21)C(CCO)C(=O)NCc1ccc(Cl)cc1 (stereo unspecified) | 48 | < 10 | 21 | – |
| CN(CCC=C1c2ccccc2CCc2ccccc21)C(CCO)C(=O)NCc1ccc(F)cc1 (stereo unspecified) | 34 | < 10 | 39 | – |
| CN(CCC=C1c2ccccc2CCc2ccccc21)C(CCO)C(=O)NCc1ccccc1 (stereo unspecified) | 19 | < 10 | 38 | – |
| CC(=O)NCCC(C(=O)NCc1ccc(C)cc1)N(C)CCC=C1c2ccccc2CCc2ccccc21 (stereo unspecified) | 36 | < 10 | 43 | – |
| Cc1ccc(CNC(=O)C(CO)N(C)CCC=C2c3ccccc3CCc3ccccc32)cc1 (stereo unspecified) | 59 | < 10 | 45 | – |
| CC(O)CC(C(=O)NCc1ccc(F)cc1)N(C)CC/C=C/c1ccccc1-c1ccccc1 (racemic; form 2) [listing 1 of 2 here] | 36 | < 10 | 62 | Activity [7]: 87% |
| CC(O)CC(C(=O)NCc1ccccc1Cl)N(C)CC/C=C/c1ccccc1-c1ccccc1 (racemic; form 1) [listing 1 of 2 here] | 43 | < 10 | 64 | Activity [7]: 75% |
| CC(=O)NCCC(C(=O)NCc1ccc(F)cc1)N(C)CCC=C1c2ccccc2CCc2ccccc21 (stereo unspecified) | 54 | < 10 | 47 | – |
| Cc1ccc(CNC(=O)C(CCO)N(C)CCC=C2c3ccccc3-c3ccccc32)cc1 (stereo unspecified) | 55 | < 10 | 52 | – |
| CN(CCC=C1c2ccccc2C=Cc2ccccc21)C(CO)C(=O)NCc1ccccc1Cl (stereo unspecified) | 52 | 12 | – | IC50 [3]: 8.23 µM |
| CC(O)CC(C(=O)NCc1ccccc1Cl)N(C)CC/C=C/c1ccccc1-c1ccccc1 (racemic; form 2) [listing 1 of 2 here] | 57 | < 10 | – | Activity [7]: 76% |
| CN(CCC=C1c2ccccc2C=Cc2ccccc21)C(CCO)C(=O)NCc1ccccc1 (stereo unspecified) | 34 | < 10 | 56 | – |
| CC(O)CC(C(=O)NCc1ccccc1Cl)N(C)CC/C=C/c1ccccc1-c1ccccc1 (racemic; form 1) [listing 2 of 2 here] | – | – | – | IC50 [4]: 38 µM; IC50 [5]: 13.8 µM; IC50 [6]: 15.5 µM; IC50 [8]: 33.9 µM |
| CN(CCC=C1c2ccccc2-c2ccccc21)C(CCO)C(=O)NCc1ccccc1Cl (stereo unspecified) | 59 | < 10 | – | IC50 [3]: 1.63 µM |
| CC(O)CC(C(=O)NCc1ccccc1)N(C)CC/C=C/c1ccccc1-c1ccccc1 (racemic; form 1) [listing 1 of 2 here] | – | – | – | IC50 [4]: 50.1 µM; IC50 [5]: 25.1 µM; IC50 [6]: 18.2 µM; IC50 [8]: 37.2 µM |
| CC(=O)NCCC(C(=O)NCc1ccccc1Cl)N(C)CCC=C1c2ccccc2CCc2ccccc21 (stereo unspecified) | 44 | < 10 | 41 | – |

| Compound | inhibition [1] [%] | inhibition [2] [%] | inhibition [9] [%] | also measured |
| --- | --- | --- | --- | --- |
| CC(O)CC(C(=O)NCc1ccc(F)cc1)N(C)CC/C=C/c1ccccc1-c1ccccc1 (racemic; form 2) [listing 2 of 2 here] | – | – | – | IC50 [4]: 14.5 µM; pIC50 [5]: 4.87; IC50 [6]: 11.7 µM; pIC50 ([8]; hek293): 4.61 |
| CC(O)CC(C(=O)NCc1ccc(F)cc1)N(C)CC/C=C/c1ccccc1-c1ccccc1 (racemic; form 1) [listing 1 of 2 here] | – | – | – | IC50 [4]: 19.1 µM; IC50 [5]: 8.91 µM; IC50 [6]: 9.77 µM; IC50 [8]: 24.5 µM |
| CN(CCC=C1c2ccccc2C=Cc2ccccc21)C(CO)C(=O)NCc1ccccc1 (stereo unspecified) | 29 | < 10 | – | IC50 [3]: 4.35 µM |
| CC(O)CC(C(=O)NCc1ccccc1Cl)N(C)CC/C=C/c1ccccc1-c1ccccc1 (racemic; form 2) [listing 2 of 2 here] | – | – | – | IC50 [4]: 15.1 µM; pIC50 [5]: 4.82; IC50 [6]: 13.5 µM; IC50 [3]: 3.67 µM; IC50 [8]: 28.8 µM |
| Cc1ccc(CNC(=O)C(CCO)N(C)CCC=C2c3ccccc3CCc3ccccc32)cc1 (stereo unspecified) | 41 | < 10 | 36 | – |
| CN(CCC=C1c2ccccc2C=Cc2ccccc21)C(CCO)C(=O)NCc1ccc(F)cc1 (stereo unspecified) | 39 | < 10 | 39 | – |
| CN(CCC=C1c2ccccc2CCc2ccccc21)C(CO)C(=O)NCc1ccc(Cl)cc1 (stereo unspecified) | 34 | < 10 | 36 | – |
| CC(O)CC(C(=O)NCc1ccc(F)cc1)N(C)CC/C=C/c1ccccc1-c1ccccc1 (racemic; form 1) [listing 2 of 2 here] | 39 | < 10 | 59 | Activity [7]: 86% |
| CN(CCC=C1c2ccccc2CCc2ccccc21)C(CCO)C(=O)NCc1ccccc1Cl (stereo unspecified) | 44 | 11 | 24 | – |
| CN(CCC=C1c2ccccc2CCc2ccccc21)C(CCO)C(=O)NCc1ccc(Cl)cc1 (stereo unspecified) | 43 | < 10 | 19 | – |
| CN(CCC=C1c2ccccc2C=Cc2ccccc21)C(CCO)C(=O)NCc1ccccc1Cl (stereo unspecified) | 48 | < 10 | 32 | – |
| CN(CCC=C1c2ccccc2CCc2ccccc21)C(CO)C(=O)NCc1ccccc1Cl (stereo unspecified) | 72 | < 10 | 52 | – |
| CC(=O)NCCC(C(=O)NCc1ccc(Cl)cc1)N(C)CCC=C1c2ccccc2CCc2ccccc21 (stereo unspecified) | 49 | < 10 | 24 | – |
| CN(CCC=C1c2ccccc2CCc2ccccc21)C(CO)C(=O)NCc1ccc(F)cc1 (stereo unspecified) | 48 | < 10 | 32 | – |
| Cc1ccc(CNC(=O)C(CCO)N(C)CCC=C2c3ccccc3C=Cc3ccccc32)cc1 (stereo unspecified) | 47 | < 10 | 35 | – |
| CC(O)CC(C(=O)NCc1ccccc1)N(C)CC/C=C/c1ccccc1-c1ccccc1 (racemic; form 1) [listing 2 of 2 here] | 36 | < 10 | 58 | Activity [7]: 75% |
| CN(CCC=C1c2ccccc2C=Cc2ccccc21)C(CO)C(=O)NCc1ccc(Cl)cc1 (stereo unspecified) | 77 | 11 | 40 | – |
| CC(=O)NCCC(C(=O)NCc1ccccc1)N(C)CCC=C1c2ccccc2CCc2ccccc21 (stereo unspecified) | 34 | < 10 | 60 | – |
| CN(CCC=C1c2ccccc2C=Cc2ccccc21)C(CO)C(=O)NCc1ccc(F)cc1 (stereo unspecified) | 30 | < 10 | – | IC50 [3]: 3.24 µM |
